The text below walks through data of PubChem BioAssay AID328 (DTP/NCI, 2004).

Values joined by “and” are separate entries in the source; they are usually repeats but may differ in a detail not shown here. Identical values can stand only once. Inconclusive results and toxic doses are left out.

This test relates to BDF1 mice, P388 leukemia ip, median survival T/C. The test is described as follows: NCI In Vivo Anticancer Drug Screen. Data for tumor model P388 Leukemia (intraperitoneal) in B6D2F1 (BDF1) mice. To be noted: endpoint: median survival time, higher = longer survival. Summed up: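 Transplantable tumour in mice; compound vs vehicle dosing; survival scored; ratio of treated to control reported.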

Setting [1] is: dose: 100.0 mg/kg/injection, schedule: Q01DX009 (ip), vehicle: saline with Tween-80.
The mark [2] stands for this setting: dose: 200.0 mg/kg/injection, schedule: Q01DX009 (ip), vehicle: saline with Tween-80.
Where [3] appears, read: dose: 400.0 mg/kg/injection, schedule: Q01DX009 (ip), vehicle: saline with Tween-80.
The mark [4] stands for this setting: dose: 100.0 mg/kg/injection, schedule: Q04DX003 (ip), vehicle: saline with Tween-80.
The mark [5] stands for this setting: dose: 200.0 mg/kg/injection, schedule: Q04DX003 (ip), vehicle: saline with Tween-80.
Setting [6] is: dose: 400.0 mg/kg/injection, schedule: Q04DX003 (ip), vehicle: saline with Tween-80.
Where [7] appears, read: dose: 50.0 mg/kg/injection, schedule: Q01DX009 (ip), vehicle: saline.
Where [8] appears, read: dose: 50.0 mg/kg/injection, schedule: Q01DX009 (ip), vehicle: saline with Tween-80.
Setting [9] is: dose: 50.0 mg/kg/injection, schedule: Q04DX003 (ip), vehicle: water.
Where [10] appears, read: dose: 100.0 mg/kg/injection, schedule: Q04DX003 (ip), vehicle: water.
The mark [11] stands for this setting: dose: 200.0 mg/kg/injection, schedule: Q04DX003 (ip), vehicle: water.
Setting [12] is: dose: 25.0 mg/kg/injection, schedule: Q01DX009 (ip), vehicle: saline with Tween-80.

On to `O=C1CCCCc2ccc(O)cc21`, for which the T/C under setting [1] was 99 % of control, the T/C under setting [2] is 89 % of control and the T/C under setting [3] is 93 % of control.

For the compound `O=C1NC(=O)c2cc([N+](=O)[O-])cc3cccc1c23`, the T/C by setting is: (dose: 100.0 mg/kg/injection, schedule: Q04DX003 (ip), vehicle: saline sonified) 91 % of control; (dose: 200.0 mg/kg/injection, schedule: Q04DX003 (ip), vehicle: saline sonified) 95 % of control; (dose: 400.0 mg/kg/injection, schedule: Q04DX003 (ip), vehicle: saline sonified) 87 % of control.

For the compound `COC1OC(COC(=O)c2ccccc2)C(OC(=O)c2ccccc2)C(OC(=O)c2ccccc2)C1OC(=O)c1ccccc1` (stereo unspecified), the T/C by setting is: under setting [4], 91 % of control; under setting [5], 91 % of control; under setting [6], 91 % of control.

Take `CCCCCC[C@H]([C@H](C)O)n1cnc2c(N)ncnc21`: the T/C (dose: 15.0 mg/kg/injection, schedule: Q01DX009 (ip), vehicle: saline) was 105 % of control; the T/C (dose: 22.0 mg/kg/injection, schedule: Q01DX009 (ip), vehicle: saline) was 105 % of control; the T/C (dose: 33.0 mg/kg/injection, schedule: Q01DX009 (ip), vehicle: saline) was 104 % of control; the T/C under setting [7] is 101 % of control.

In the case of `Cc1c([C@H](C)[C@@H]2NC[C@@H](C)C[C@H]2O)ccc2c1C[C@H]1[C@H]2CC=C2C[C@@H](O)CC[C@@]21C`, the T/C (dose: 3.0 mg/kg/injection, schedule: Q01DX010 (ip), vehicle: carboxymethylcellulose (CMC)) is 115 % of control.

`Cc1ccc(S(=O)(=O)Nc2ccccc2)c(CC(O)(c2ccccc2)c2ccccc2)c1`: the T/C is 90 % of control under setting [8] and 95 % of control under setting [1].

Regarding `c1ccc(CN2C3Oc4ccccc4C2Oc2ccccc23)cc1`, the T/C is 94 % of control under setting [8] and 87 % of control under setting [2].

Consider `CCCCC(O)C1=CC(=O)C2CC(C)=C(C)CC2C1=O` (stereo unspecified), for which the T/C by setting is: under setting [4], 92 % of control; under setting [5], 102 % of control; under setting [6], 100 % of control.

On to `CN=C(N)Nc1ccc(C(=O)Oc2ccc([N+](=O)[O-])cc2)cc1`, for which the T/C runs as follows: (dose: 12.5 mg/kg/injection, schedule: Q01DX009 (ip), vehicle: water) 89 % of control; (dose: 25.0 mg/kg/injection, schedule: Q01DX009 (ip), vehicle: water) 95 % of control; (dose: 50.0 mg/kg/injection, schedule: Q01DX009 (ip), vehicle: water) 87 % of control; under setting [9], 122 % of control; under setting [10], 110 % of control; (dose: 200.0 mg/kg/injection, schedule: Q01DX009 (ip), vehicle: water) 105 % of control. The T/C under setting [11] is 113 % of control.

As to `C=C1C(=O)OC2CC3(C)CC(O)C(O)C(=C)C3CC12` (stereo unspecified), the T/C is 104 % of control (dose: 25.0 mg/kg/injection, schedule: Q01DX009 (ip), vehicle: saline); 104 % of control under setting [7]; 104 % of control (dose: 100.0 mg/kg/injection, schedule: Q01DX009 (ip), vehicle: saline).

For `CC1(C)CNC2OC1NCC2(C)C`, the T/C (dose: 100.0 mg/kg/injection, schedule: Q01DX001 (ip), vehicle: saline sonified) was 100 % of control; the T/C (dose: 200.0 mg/kg/injection, schedule: Q01DX001 (ip), vehicle: saline sonified) was 100 % of control; the T/C (dose: 400.0 mg/kg/injection, schedule: Q01DX001 (ip), vehicle: saline sonified) is 104 % of control.

With `OCCCC1CCCCN1` (stereo unspecified), the T/C reads like this: (dose: 25.0 mg/kg/injection, schedule: Q04DX003 (ip), vehicle: saline) 115 % of control; (dose: 50.0 mg/kg/injection, schedule: Q04DX003 (ip), vehicle: saline) 100 % of control; (dose: 100.0 mg/kg/injection, schedule: Q04DX003 (ip), vehicle: saline) 105 % of control.

For `CCOC(=O)c1ccc(NC(=O)Nc2c(C)n(C)n(-c3ccccc3)c2=O)cc1`, the T/C runs as follows: (dose: 50.0 mg/kg/injection, schedule: Q01DX009 (ip), vehicle: Klucel (hydroxypropylcellulose) (HPC)) 100 % of control; (dose: 100.0 mg/kg/injection, schedule: Q01DX009 (ip), vehicle: Klucel (hydroxypropylcellulose) (HPC)) 100 % of control; (dose: 200.0 mg/kg/injection, schedule: Q01DX009 (ip), vehicle: Klucel (hydroxypropylcellulose) (HPC)) 90 % of control.

For `CCCCCCC#CC(=O)OC`, the T/C was 106 % of control under setting [12], 106 % of control under setting [8], 109 % of control under setting [1] and 106 % of control under setting [2].

With `[OH-].[OH-].[Pd+2].c1ccc(CSc2ncnc3nc[nH]c23)cc1.c1ccc(CSc2ncnc3nc[nH]c23)cc1.c1ccc(CSc2ncnc3nc[nH]c23)cc1.c1ccc(CSc2ncnc3nc[nH]c23)cc1`, the T/C by setting is: under setting [1], 90 % of control; under setting [4], 90 % of control; under setting [2], 90 % of control; under setting [5], 90 % of control; under setting [3], 90 % of control.

For the compound `C1CSCCSCCCSCCSC1`, the T/C under setting [12] was 98 % of control, the T/C under setting [8] is 102 % of control and the T/C under setting [1] was 118 % of control.

Regarding `COc1ccc(CC2C(=O)NC(C)C(=O)N(C)C3C(=O)N(C)C(Cc4ccc(O)c(c4)Oc4ccc(cc4)C3O)C(=O)NC(C)C(=O)NC(C)C(=O)N2C)cc1` (stereo unspecified) (tested in a mixture with another compound), the T/C reads like this: (dose: 0.5 mg/kg/injection, schedule: Q01DX009 (ip), vehicle: alcohol) 179 % of control; (dose: 0.5 mg/kg/injection, schedule: Q01DX009 (ip), vehicle: carboxymethylcellulose (CMC)) 207 % of control; (dose: 1.0 mg/kg/injection, schedule: Q01DX009 (ip), vehicle: alcohol) 158 % of control; (dose: 1.0 mg/kg/injection, schedule: Q01DX009 (ip), vehicle: carboxymethylcellulose (CMC)) 182 % of control; (dose: 2.0 mg/kg/injection, schedule: Q01DX009 (ip), vehicle: alcohol) 208 % of control; (dose: 2.0 mg/kg/injection, schedule: Q01DX009 (ip), vehicle: carboxymethylcellulose (CMC)) 207 % of control.

As for `O=C(NC(Cc1ccccc1)C(=O)Oc1ccc(Cl)cc1)OCc1ccccc1` (stereo unspecified), the T/C reads like this: (dose: 100.0 mg/kg/injection, schedule: Q04DX002 (ip), vehicle: saline with Tween-80) 101 % of control; (dose: 200.0 mg/kg/injection, schedule: Q04DX002 (ip), vehicle: saline with Tween-80) 94 % of control; (dose: 400.0 mg/kg/injection, schedule: Q04DX002 (ip), vehicle: saline with Tween-80) 100 % of control and 91 % of control.

On to `CC(C)CC(Br)C(=O)NCC(=O)NC(Cc1ccccc1)C(=O)O` (stereo unspecified), for which the T/C is 95 % of control (dose: 50.0 mg/kg/injection, schedule: Q04DX003 (ip), vehicle: saline with Tween-80); 100 % of control under setting [4]; 95 % of control under setting [5].

For the compound `Cc1nnc2n1N=C(c1ccc(-c3ccccc3)cc1)CS2`, the T/C was 104 % of control under setting [4], 92 % of control under setting [5] and 93 % of control under setting [6].

In the case of `C/C(=C/CC(=O)O)C(=O)O`, the T/C (dose: 12.5 mg/kg/injection, schedule: Q04DX003 (ip), vehicle: water) is 119 % of control; the T/C (dose: 25.0 mg/kg/injection, schedule: Q04DX003 (ip), vehicle: water) was 97 % of control; the T/C under setting [9] was 97 % of control; the T/C under setting [10] is 103 % of control; the T/C under setting [11] is 122 % of control.

For `NCC(O)COc1ccccc1N` (stereo unspecified), the T/C is, setting by setting: (dose: 3.0 mg/kg/injection, schedule: Q01DX009 (ip), vehicle: saline) 100 % of control; (dose: 3.0 mg/kg/injection, schedule: Q04DX003 (ip), vehicle: saline) 108 % of control and 109 % of control; (dose: 6.0 mg/kg/injection, schedule: Q01DX009 (ip), vehicle: saline) 100 % of control; (dose: 6.0 mg/kg/injection, schedule: Q04DX003 (ip), vehicle: saline) 95 % of control and 109 % of control; (dose: 12.0 mg/kg/injection, schedule: Q01DX009 (ip), vehicle: saline) 96 % of control; (dose: 12.0 mg/kg/injection, schedule: Q04DX003 (ip), vehicle: saline) 100 % of control and 113 % of control.

`Cc1nc2c(NC(=O)C(F)(F)F)nn(C)c2nc1C`: the T/C reads like this: under setting [4], 100 % of control; under setting [5], 104 % of control; under setting [6], 100 % of control.
